{"source": "patent US5130303A", "about": "“Drug effect-enhancing agent for antitumor drug” (Nissan Chemical Industries Ltd., priority 1988, dated 1992)", "key": {"[1]": {"test_system": "cancer cells", "conditions": "literature; cited from earlier work"}, "[2]": {"test_system": "KB-C2", "test": "in vitro chemosensitivity test, MTT colorimetric assay with vincristine (Test Example 1, Table 1)", "assay_type": "cell-based", "conditions": "Homo sapiens, KB-C2, 96 h, read-out: IC50 of vincristine without a sample", "protocol": "MTT colorimetric assay performed in a 96-well plate was used for an in vitro chemosensitivity test. The assay is dependent on the reduction of MTT by the mitochondrial dehydrogenase of viable cells to a blue formazan product which can be measured spectrophotometrically. Equal numbers of cells (2,000 for KB-3-1 and 5,000 for KB-C2) were inoculated into each well with […] of culture medium. After overnight incubation (37° C., 5% CO2), 20 μl of vincristine solution and 0.5 μl of sample solution were added and incubated for 4 days. Then, 50 μl of MTT (1.1 mg/ml PBS) was added to each well and incubated for further 4 hours. The resulting formazan was dissolved with 100 μl of DMSO after aspiration of the culture medium. Plates were placed on a plate shaker for 5 minutes and read immediately at 570 nm. IC50 (mg/ml) with a tested sample 10 μM is given in Table 1; and IC50 of vincristine without a sample was 5,000 ng/ml.\nMTT: 3-(4,5-dimethylthiazol-2-yl)-2,5-diphenyltetrazolium bromide\nMEM: minimum essential medium"}}}
{"smiles": "COc1ccc(CCN(C)CCCC(C#N)(c2ccc(OC)c(OC)c2)C(C)C)cc1OC", "note": "(stereo not shown) [Verapamil]", "values": [{"measurement": "effect on multidrug resistance / antitumor drug effects", "setting": "[1]", "value": "overcomes the multidrug resistance against antitumor drugs"}]}
{"smiles": "COc1ccc([C@@H]2Sc3ccccc3N(CCN(C)C)C(=O)[C@@H]2OC(C)=O)cc1", "note": "[diltiazem]", "values": [{"measurement": "effect on multidrug resistance / antitumor drug effects", "setting": "[1]", "value": "enhances the drug effects of vincristine (VCR)"}]}
{"smiles": "COC(=O)C1=C(C)NC(C)=C(C(=O)OCCN(C)Cc2ccccc2)C1c1cccc([N+](=O)[O-])c1", "note": "(stereo not shown) [nicardipin]", "values": [{"measurement": "effect on multidrug resistance / antitumor drug effects", "setting": "[1]", "value": "enhances the antitumor activities of vindecine sulfate"}]}
{"smiles": "CC[C@]1(O)C[C@H]2CN(CCc3c([nH]c4ccccc34)[C@@](C(=O)OC)(c3cc4c(cc3OC)N(C=O)[C@H]3[C@@](O)(C(=O)OC)[C@H](OC(C)=O)[C@]5(CC)C=CCN6CC[C@]43[C@@H]65)C2)C1", "note": "[vincristine]", "values": [{"measurement": "IC50", "setting": "[2]", "value": 5, "unit": "µg/mL"}]}
